From ChEMBL document CHEMBL1201862, “PubChem BioAssay data set” (2004)
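Briefly, cells in 96-well plates were exposed to five compound concentrations for 48 h, and endpoints were estimated by linear interpolation. At the GI50, growth is halved.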 The source made the active and inactive calls. Rule as the data show it: active = GI50 up to about 1.1 µM and inactive = higher.

Columns and labels:
Test in all cases: growth of human tumour cells (NCI), 48 h
M14 = test system: M14
SN12C = test system: SN12C
HOP-62 = test system: HOP-62
SNB-19 = test system: SNB-19
SK-MEL-28 = test system: SK-MEL-28
Malme-3M = test system: Malme-3M
HCT-116 = test system: HCT-116
UO-31 = test system: UO-31
SNB-75 = test system: SNB-75
NCI/ADR-RES = test system: NCI/ADR-RES
A498 = test system: A498
SR = test system: SR
LOX IMVI = test system: LOX IMVI
SF-268 = test system: SF-268
HOP-92 = test system: HOP-92
ACHN = test system: ACHN
OVCAR-8 = test system: OVCAR-8
PC-3 = test system: PC-3
CAKI-1 = test system: CAKI-1
A549 = test system: A549

SMILES	GI50 (M14)	GI50 (SN12C)	GI50 (HOP-62)	GI50 (SNB-19)	GI50 (SK-MEL-28)	GI50 (Malme-3M)	GI50 (HCT-116)	GI50 (UO-31)	GI50 (SNB-75)	GI50 (NCI/ADR-RES)	GI50 (A498)	GI50 (SR)	GI50 (LOX IMVI)	GI50 (SF-268)	GI50 (HOP-92)	GI50 (ACHN)	GI50 (OVCAR-8)	GI50 (PC-3)	GI50 (CAKI-1)	GI50 (A549)
O=C1/C(=C(/Br)I)c2ccccc2-c2ccccc21	9.95 µM (inactive)	16.2 µM (inactive)	17.1 µM (inactive)	13.9 µM (inactive)	21.5 µM (inactive)	3.56 µM (inactive)	7.85 µM (inactive)	2.4 µM (inactive)	15.5 µM (inactive)	9.02 µM (inactive)	16.4 µM (inactive)	2.92 µM (inactive)	5.3 µM (inactive)	14.1 µM (inactive)	2.79 µM (inactive)	7.26 µM (inactive)	16.9 µM (inactive)	8.34 µM (inactive)	5.57 µM (inactive)	15.9 µM (inactive)
O=C(/C=C/C(=O)N1CCCC1)N1CCCC1	> 100 µM (inactive)	> 100 µM (inactive)	> 100 µM (inactive)	> 100 µM (inactive)	> 100 µM (inactive)	> 100 µM (inactive)	> 100 µM (inactive)	> 100 µM (inactive)	–	> 100 µM (inactive)	> 100 µM (inactive)	> 100 µM (inactive)	> 100 µM (inactive)	> 100 µM (inactive)	> 100 µM (inactive)	> 100 µM (inactive)	> 100 µM (inactive)	> 100 µM (inactive)	> 100 µM (inactive)	> 100 µM (inactive)
O=c1oc2ccc(Cl)cc2c2ccccc12	> 100 µM (inactive)	> 100 µM (inactive)	18.8 µM (inactive)	20 µM (inactive)	> 100 µM (inactive)	> 100 µM (inactive)	76.2 µM (inactive)	–	39.2 µM (inactive)	84.1 µM (inactive)	75.7 µM (inactive)	> 100 µM (inactive)	> 100 µM (inactive)	20.7 µM (inactive)	23.2 µM (inactive)	> 100 µM (inactive)	65 µM (inactive)	> 100 µM (inactive)	43 µM (inactive)	63.4 µM (inactive)
C/C(=N\NC(=S)N1CCCCCCCCCCCC1)c1ccccn1	0.214 µM (active)	0.238 µM (active)	0.132 µM (active)	0.659 µM (active)	0.33 µM (active)	0.281 µM (active)	0.447 µM (active)	0.349 µM (active)	0.243 µM (active)	0.778 µM (active)	0.372 µM (active)	0.0782 µM (active)	0.135 µM (active)	0.225 µM (active)	0.111 µM (active)	0.215 µM (active)	0.147 µM (active)	0.107 µM (active)	0.246 µM (active)	0.356 µM (active)
C[C@@]12C=CC3C/C(=N\C(N)=S)C=C(CCCC4OCCO4)[C@]3(CC1)C2 (some centres undefined)	17.2 µM (inactive)	16.5 µM (inactive)	29.5 µM (inactive)	34.5 µM (inactive)	18 µM (inactive)	18.4 µM (inactive)	13.7 µM (inactive)	17.6 µM (inactive)	28.6 µM (inactive)	15.8 µM (inactive)	15.5 µM (inactive)	15.1 µM (inactive)	17.4 µM (inactive)	29.4 µM (inactive)	34.4 µM (inactive)	28.6 µM (inactive)	21.8 µM (inactive)	17.4 µM (inactive)	25.1 µM (inactive)	21.1 µM (inactive)
Nc1nc(N)c2nc(CNc3ccc(C(=O)NC(CCCCNC(=O)c4ccccc4C(=O)O)C(=O)O)cc3)cnc2n1 (centres undefined)	0.01 µM (active)	0.01 µM (active)	0.01 µM (active)	< 0.0158 µM (active)	< 0.0275 µM (active)	3.61 µM (inactive)	0.01 µM (active)	0.00776 µM (active)	–	0.01 µM (active)	0.0738 µM (active)	0.01 µM (active)	0.01 µM (active)	0.01 µM (active)	0.445 µM (active)	0.01 µM (active)	0.01 µM (active)	0.01 µM (active)	0.01 µM (active)	0.01 µM (active)
COC(=O)[C@]12CCC(C)(C)C[C@H]1C1=CC[C@@H]3[C@@]4(C)CC[C@H](OC5OC(CO)C(O)C(O)C5OC5OC(CO)C(O)C(O)C5O)C(C)(C)[C@@H]4CC[C@@]3(C)[C@]1(C)CC2 (some centres undefined)	3.91 µM (inactive)	4.62 µM (inactive)	12.6 µM (inactive)	14.3 µM (inactive)	3.37 µM (inactive)	11.9 µM (inactive)	5.41 µM (inactive)	3.4 µM (inactive)	13.5 µM (inactive)	14.5 µM (inactive)	11.3 µM (inactive)	7.85 µM (inactive)	6.15 µM (inactive)	13.7 µM (inactive)	3.91 µM (inactive)	7.55 µM (inactive)	15.9 µM (inactive)	3.89 µM (inactive)	8.81 µM (inactive)	8.83 µM (inactive)
COC(=O)Nc1cc(OCCCOC(C)=O)c2[nH]c(C(=O)OC)cc2c1C[C@H](O)CO	> 100 µM (inactive)	> 100 µM (inactive)	> 100 µM (inactive)	> 100 µM (inactive)	> 100 µM (inactive)	–	> 100 µM (inactive)	> 100 µM (inactive)	–	> 100 µM (inactive)	> 100 µM (inactive)	> 100 µM (inactive)	> 100 µM (inactive)	–	11.1 µM (inactive)	> 100 µM (inactive)	> 100 µM (inactive)	> 100 µM (inactive)	> 100 µM (inactive)	> 100 µM (inactive)
CC(C)(C)OC(=O)NC(Cc1ccc(O)cn1)C(=O)O (centres undefined)	–	> 100 µM (inactive)	> 100 µM (inactive)	> 100 µM (inactive)	> 100 µM (inactive)	> 100 µM (inactive)	> 100 µM (inactive)	> 100 µM (inactive)	> 100 µM (inactive)	> 100 µM (inactive)	> 100 µM (inactive)	> 100 µM (inactive)	> 100 µM (inactive)	> 100 µM (inactive)	> 100 µM (inactive)	> 100 µM (inactive)	> 100 µM (inactive)	> 100 µM (inactive)	> 100 µM (inactive)	> 100 µM (inactive)
O=C1c2ccccc2C(=O)c2c(NCC3CO3)ccc(NCC3CO3)c21 (centres undefined)	0.682 µM (active)	0.456 µM (active)	1.55 µM (inactive)	15.1 µM (inactive)	2.71 µM (inactive)	5.3 µM (inactive)	0.171 µM (active)	1.87 µM (inactive)	26.7 µM (inactive)	1.6 µM (inactive)	33.3 µM (inactive)	0.0228 µM (active)	0.0132 µM (active)	0.254 µM (active)	10.3 µM (inactive)	0.303 µM (active)	0.63 µM (active)	1.91 µM (inactive)	0.687 µM (active)	2.4 µM (inactive)
c1ccc(C(CCN2CC3CCC(CC3)C2)c2ccccc2)cc1	14.3 µM (inactive)	26.4 µM (inactive)	27.5 µM (inactive)	34.4 µM (inactive)	41.1 µM (inactive)	16.3 µM (inactive)	20.1 µM (inactive)	14.9 µM (inactive)	24.2 µM (inactive)	23.8 µM (inactive)	15.6 µM (inactive)	19.7 µM (inactive)	16.9 µM (inactive)	25.6 µM (inactive)	22.9 µM (inactive)	22.8 µM (inactive)	28.6 µM (inactive)	31.5 µM (inactive)	37.9 µM (inactive)	31.2 µM (inactive)
NCCCCNCCCNC(=O)CNC(=O)CC(O)C(N)CCCC(NC(=O)C(CN)NC(=O)C(O)CNC(=O)CC(N)c1ccc(O)cc1)C(=O)O (centres undefined)	> 10 µM (inactive)	> 10 µM (inactive)	> 10 µM (inactive)	> 10 µM (inactive)	> 10 µM (inactive)	> 10 µM (inactive)	> 10 µM (inactive)	> 10 µM (inactive)	> 10 µM (inactive)	> 10 µM (inactive)	> 10 µM (inactive)	> 10 µM (inactive)	> 10 µM (inactive)	> 10 µM (inactive)	> 10 µM (inactive)	> 10 µM (inactive)	> 10 µM (inactive)	> 10 µM (inactive)	> 10 µM (inactive)	> 10 µM (inactive)
COc1ccc(N(CC(=O)O)N=O)cc1	> 100 µM (inactive)	> 100 µM (inactive)	> 100 µM (inactive)	> 100 µM (inactive)	> 100 µM (inactive)	> 100 µM (inactive)	> 100 µM (inactive)	> 100 µM (inactive)	–	> 100 µM (inactive)	> 100 µM (inactive)	> 100 µM (inactive)	> 100 µM (inactive)	> 100 µM (inactive)	> 100 µM (inactive)	> 100 µM (inactive)	> 100 µM (inactive)	> 100 µM (inactive)	> 100 µM (inactive)	> 100 µM (inactive)
CC1=CC(=O)N(n2c(Cc3ccccc3)n[nH]c2=O)C1=O	> 100 µM (inactive)	> 100 µM (inactive)	–	> 100 µM (inactive)	–	> 100 µM (inactive)	> 100 µM (inactive)	> 100 µM (inactive)	–	> 100 µM (inactive)	> 100 µM (inactive)	72.6 µM (inactive)	83.4 µM (inactive)	> 100 µM (inactive)	> 100 µM (inactive)	> 100 µM (inactive)	> 100 µM (inactive)	93.5 µM (inactive)	> 100 µM (inactive)	> 100 µM (inactive)
